Drawing on ChEMBL document CHEMBL1201862, “PubChem BioAssay data set” (2004), this text covers AC50, IC50 and EC50 for four compounds.

Test [1] can be described thus: non-specific 3'UTR reporter inhibition in Clone20-Shn3RL – cell-based, Renilla luciferase, cherry-picked, counter-screen for Shn3 inhibitor project, dose response (AID 624133). The class given is functional. A general note: The purpose of a counterscreen is to sort out artefacts and off-target activity.
The target of test [2] is Photoreceptor-specific nuclear receptor (Homo sapiens, UniProt Q9Y5X4). Format: functional, cell-based.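 Also: CHO-S cells with Gal4-NCOR and VP16-NR2E3 two-hybrid luciferase reporter.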
The subject of the next test is INS1. In words: INS-1E survival protection against cytokine death – cell-based, luminescence, retest, dose response (AID 449756).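 Also: cell death triggered by IL-1 beta plus TNF-alpha plus IFN-gamma mixture; protective hits raise ATP signal compared with cytokine alone wells.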 Format: functional. Particulars: Rattus norvegicus.
Test [3] in a line: reduction of Shn3 3'UTR-driven luciferase in osteoblasts – cell-based, Clone20 osteoblasts, firefly luciferase, cherry-picked, dose response (AID 624132).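 Also: firefly luciferase luminescence from reporter carrying the Shn3 3'UTR in osteoblasts.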 The class given is functional.
A further test concerns the target Beta-galactosidase (Escherichia coli, UniProt Q8VNN2). In words: PubChem AID 485352. The class given is functional.
Test [4] concerns the target E3 ubiquitin-protein ligase Mdm2 (Homo sapiens, UniProt Q00987). In words: MDM2-luc reporter signal enhancers, multi-concentration potency testing, MDM2 ubiquitin-protein ligase inhibitor program, whole-cell format, luminescence detection, 384-well microplate (AID 1394).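 Also: MDM2 E3 inhibitors raise luminescence so EC50 is for signal enhancement.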 Format: functional.
Another test relates to Jurkat. In words: blockers of NF-kB activation in T cells – Jurkat, luciferase reporter, luminescence, B- and T-cell, dose response (AID 489004).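 Also: NF-kB luciferase reporter Jurkat cells stimulated with PMA plus ionomycin.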 Format: functional, cell-based. Particulars: Homo sapiens.
For test [5], the target named is G-protein coupled receptor 55 (Homo sapiens, UniProt Q9Y2T6). In words: inhibition of LPI-stimulated GPR55 beta-arrestin translocation – imaging, U2OS, beta-arrestin-GFP, LPI agonist, primary screen (AID 2013).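 Also: antagonist potency measured as reduced agonist-driven arrestin aggregation.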 Format: functional.
Chain of G-protein coupled receptor 55 (Q9Y2T6 whole entry): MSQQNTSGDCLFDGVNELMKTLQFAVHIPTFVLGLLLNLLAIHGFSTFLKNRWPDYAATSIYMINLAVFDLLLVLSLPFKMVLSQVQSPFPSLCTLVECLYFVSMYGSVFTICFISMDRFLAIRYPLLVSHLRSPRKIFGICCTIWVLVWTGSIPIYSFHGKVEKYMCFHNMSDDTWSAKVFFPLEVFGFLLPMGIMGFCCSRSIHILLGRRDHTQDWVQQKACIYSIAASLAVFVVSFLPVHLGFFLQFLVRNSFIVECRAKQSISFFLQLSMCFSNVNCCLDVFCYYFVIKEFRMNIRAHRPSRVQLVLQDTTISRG
Test [6] is described as follows: HEK-293T viability loss, compound-treated – cell-based, uHTS hits, cytotoxicity control for B/T-cell NF-kB inhibitor project, dose response (AID 489019).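 Also: IC50 reflects cytotoxicity as loss of cell viability.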 The class given is functional.
Test [7] can be described thus: loss of viability in HepG2 cells – cell-based, CellTiter-Glo, cherry-picked, cytotoxicity control for Shn3 inhibitor project, dose response (AID 624134). Format: functional. A general note: In ATP-based viability assays light output follows the ATP content of the culture.
Test [8] addresses T1, Type-1 angiotensin II receptor (Homo sapiens, UniProt P30556).
T1 sequence (P30556 whole entry): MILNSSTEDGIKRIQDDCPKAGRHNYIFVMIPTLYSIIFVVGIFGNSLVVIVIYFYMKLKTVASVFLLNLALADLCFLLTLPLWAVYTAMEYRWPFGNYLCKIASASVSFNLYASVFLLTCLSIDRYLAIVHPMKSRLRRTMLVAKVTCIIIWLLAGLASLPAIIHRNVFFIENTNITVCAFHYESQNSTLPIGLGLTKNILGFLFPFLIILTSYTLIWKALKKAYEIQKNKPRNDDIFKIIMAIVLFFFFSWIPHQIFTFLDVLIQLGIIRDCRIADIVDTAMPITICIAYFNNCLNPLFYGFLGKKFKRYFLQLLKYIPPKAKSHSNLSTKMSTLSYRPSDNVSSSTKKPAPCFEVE
Description: antagonism of angiotensin II type 1 receptor – cell-based, uHTS hits, selectivity assay for APJ receptor antagonist project, dose response (AID 463214).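 Also: antagonist potency against angiotensin II stimulated AT1 response.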 The class given is functional.

Test [9] can be described thus: Luminescence Cell-Based Dose Response HTS to Identify Inhibitors of 5'UTR Stem-Loop Driven Prion Protein mRNA Translation in H4 Neuroglioblastoma Cells. [Related pubchem assays: 1827 (Project Summary), 1813 (Primary HTS)]. Format: functional.
A short description of test [10]: luciferase reporter signal suppression in cells – H4 neuroglioma cells, luminescence, dose response (AID 1990). Format: functional, cell-based. On the technique in general: In a reporter assay the amount or activity of a reporter protein is the signal.
For test [11], the target named is Delta-type opioid receptor (Homo sapiens, UniProt P41143). Description: Counterscreen for agonists of heterodimerization of the mu 1 (OPRM1) and delta 1 (OPRD1) opioid receptors: Luminescence-based cell-based high throughput dose response assay to identify agonists of OPRD1 homodimerization. [Related pubchem assays (depositor defined):AID504326, AID504355, AID504692, AID504904, AID504905]. The class given is functional.
Chain of Delta-type opioid receptor (P41143 whole entry): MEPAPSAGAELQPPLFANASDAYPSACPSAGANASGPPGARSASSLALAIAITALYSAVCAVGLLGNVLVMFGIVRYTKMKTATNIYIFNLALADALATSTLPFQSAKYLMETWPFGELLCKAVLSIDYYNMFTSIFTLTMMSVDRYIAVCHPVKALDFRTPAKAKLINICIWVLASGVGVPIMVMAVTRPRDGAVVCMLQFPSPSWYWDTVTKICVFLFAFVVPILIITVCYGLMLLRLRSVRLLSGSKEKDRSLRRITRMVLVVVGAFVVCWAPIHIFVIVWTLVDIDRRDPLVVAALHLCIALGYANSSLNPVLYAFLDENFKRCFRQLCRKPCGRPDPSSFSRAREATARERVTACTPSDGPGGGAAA

Test [12] addresses T2, Short transient receptor potential channel 4 (Mus musculus, UniProt Q9QUQ5).
T2 sequence (Q9QUQ5 whole entry): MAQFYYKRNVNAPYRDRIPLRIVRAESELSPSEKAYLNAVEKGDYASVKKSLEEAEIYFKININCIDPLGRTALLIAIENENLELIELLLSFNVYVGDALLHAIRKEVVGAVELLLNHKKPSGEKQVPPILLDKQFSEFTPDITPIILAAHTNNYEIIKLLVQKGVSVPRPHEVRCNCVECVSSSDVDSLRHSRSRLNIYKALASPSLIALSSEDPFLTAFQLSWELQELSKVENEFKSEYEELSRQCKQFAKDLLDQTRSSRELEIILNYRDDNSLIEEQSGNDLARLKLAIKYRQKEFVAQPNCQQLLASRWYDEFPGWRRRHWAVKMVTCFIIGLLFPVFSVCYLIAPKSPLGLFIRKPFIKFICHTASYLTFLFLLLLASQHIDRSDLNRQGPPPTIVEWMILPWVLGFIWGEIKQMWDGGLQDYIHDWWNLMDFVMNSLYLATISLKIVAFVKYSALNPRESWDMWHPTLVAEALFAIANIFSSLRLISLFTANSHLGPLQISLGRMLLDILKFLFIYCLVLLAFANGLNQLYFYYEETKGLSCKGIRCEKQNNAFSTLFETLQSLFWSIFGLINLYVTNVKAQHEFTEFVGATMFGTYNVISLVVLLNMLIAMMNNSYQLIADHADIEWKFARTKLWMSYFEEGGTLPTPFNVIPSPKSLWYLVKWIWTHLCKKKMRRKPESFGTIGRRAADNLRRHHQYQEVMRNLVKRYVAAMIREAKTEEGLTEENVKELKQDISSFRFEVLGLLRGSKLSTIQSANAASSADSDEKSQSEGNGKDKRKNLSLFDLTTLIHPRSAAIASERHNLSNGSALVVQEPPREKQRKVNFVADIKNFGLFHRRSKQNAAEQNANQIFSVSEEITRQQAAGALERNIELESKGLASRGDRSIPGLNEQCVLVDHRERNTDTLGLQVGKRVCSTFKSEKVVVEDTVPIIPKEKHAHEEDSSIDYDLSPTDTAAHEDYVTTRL
In words: calcium entry via TRPC4 opening agents – cell-based, HEK293 TRPC4/mu-opioid, Fluo-4 calcium, dose response (AID 434937). The class given is functional.

For a further test, the target named is Mu-type opioid receptor (Homo sapiens, UniProt P35372). Description: Counterscreen for agonists of heterodimerization of the mu 1 (OPRM1) and delta 1 (OPRD1) opioid receptors: Luminescence-based cell-based high throughput dose response assay to identify agonists of OPRM1 homodimerization. Format: functional.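 Also: U2OS cells expressing OPRM1 and beta-arrestin as split beta-galactosidase partners.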
Chain of Mu-type opioid receptor (P35372 whole entry): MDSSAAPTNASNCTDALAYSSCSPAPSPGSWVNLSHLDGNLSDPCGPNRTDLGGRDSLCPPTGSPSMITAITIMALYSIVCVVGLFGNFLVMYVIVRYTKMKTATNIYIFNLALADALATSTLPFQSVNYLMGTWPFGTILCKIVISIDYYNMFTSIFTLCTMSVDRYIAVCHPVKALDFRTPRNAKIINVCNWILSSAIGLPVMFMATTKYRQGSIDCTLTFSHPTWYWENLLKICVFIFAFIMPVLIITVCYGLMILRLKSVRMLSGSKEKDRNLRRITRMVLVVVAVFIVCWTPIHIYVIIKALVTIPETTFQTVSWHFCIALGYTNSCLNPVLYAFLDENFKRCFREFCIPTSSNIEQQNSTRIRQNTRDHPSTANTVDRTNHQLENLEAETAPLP
Test [13] addresses 5-hydroxytryptamine receptor 5A (Homo sapiens, UniProt P47898). Description: Counterscreen for agonists of OPRM1-OPRD1 heterodimerization: luminescence-based cell-based high throughput dose response assay to identify agonists of 5-hydroxytryptamine (serotonin) 5A receptor (HTR5A). [Related pubchem assays (depositor defined):AID504326, AID504355, AID504692, AID504904, AID504905]. Format: functional.

For test [14], the target named is DNA dC->dU-editing enzyme APOBEC-3A (Homo sapiens, UniProt P31941). Description: SAR analysis of small molecule inhibitors of APOBEC3A DNA Deaminase via a fluorescence-based single-stranded DNA deaminase assay. Format: functional. Conditions: read-out: IC50_Mean.
Chain of DNA dC->dU-editing enzyme APOBEC-3A (P31941 whole entry): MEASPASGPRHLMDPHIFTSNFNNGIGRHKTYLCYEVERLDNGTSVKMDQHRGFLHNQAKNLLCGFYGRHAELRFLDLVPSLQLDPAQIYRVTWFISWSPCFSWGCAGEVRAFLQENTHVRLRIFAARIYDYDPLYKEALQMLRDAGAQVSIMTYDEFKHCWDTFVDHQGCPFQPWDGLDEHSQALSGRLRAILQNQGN
The target of test [15] is DNA dC->dU-editing enzyme APOBEC-3G (Homo sapiens, UniProt Q9HC16). In words: inhibition of APOBEC3G ssDNA deamination – biochemical, fluorescence, single-stranded DNA substrate, SAR follow-up (AID 602136). The class given is functional. Conditions: read-out: IC50_Mean.
Chain of DNA dC->dU-editing enzyme APOBEC-3G (Q9HC16 whole entry): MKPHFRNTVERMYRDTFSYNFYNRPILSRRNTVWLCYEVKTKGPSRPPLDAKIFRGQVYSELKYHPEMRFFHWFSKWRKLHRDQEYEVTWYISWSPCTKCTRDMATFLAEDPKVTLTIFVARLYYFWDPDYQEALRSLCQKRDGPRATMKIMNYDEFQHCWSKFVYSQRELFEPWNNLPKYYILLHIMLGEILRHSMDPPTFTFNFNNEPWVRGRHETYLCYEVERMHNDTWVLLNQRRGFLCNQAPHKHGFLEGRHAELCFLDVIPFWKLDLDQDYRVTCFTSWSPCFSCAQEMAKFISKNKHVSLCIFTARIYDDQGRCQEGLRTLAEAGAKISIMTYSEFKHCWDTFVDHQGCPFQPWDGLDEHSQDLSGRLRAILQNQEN
For test [16], the target named is CAAX prenyl protease 2 (Homo sapiens, UniProt Q9Y256). In words: inhibition of Ras-converting CAAX protease Rce1 – biochemical, yeast membranes, quenched-peptide fluorescence, cherry-pick, dose response (AID 588849).
Chain of CAAX prenyl protease 2 (Homo sapiens, UniProt Q9Y256) (Q9Y256 whole entry): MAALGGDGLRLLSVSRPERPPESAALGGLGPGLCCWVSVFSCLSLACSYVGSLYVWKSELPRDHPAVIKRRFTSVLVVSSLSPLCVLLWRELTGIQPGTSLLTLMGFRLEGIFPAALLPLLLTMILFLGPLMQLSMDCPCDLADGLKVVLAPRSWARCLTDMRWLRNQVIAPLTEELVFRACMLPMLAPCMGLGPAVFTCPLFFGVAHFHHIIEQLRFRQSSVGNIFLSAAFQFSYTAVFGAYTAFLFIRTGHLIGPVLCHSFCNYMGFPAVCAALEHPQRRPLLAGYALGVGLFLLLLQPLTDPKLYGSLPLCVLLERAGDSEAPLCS
The next test concerns the target CAAX prenyl protease 1 (Saccharomyces cerevisiae S288c, UniProt P47154). Description: yeast CAAX protease Ste24 inhibition – biochemical, S. cerevisiae, plate reader, cherry-pick, dose response (AID 488815).
For test [17], the target named is T3, CAAX prenyl protease 2 (Saccharomyces cerevisiae S288c, UniProt Q03530).
T3 sequence (Q03530 whole entry): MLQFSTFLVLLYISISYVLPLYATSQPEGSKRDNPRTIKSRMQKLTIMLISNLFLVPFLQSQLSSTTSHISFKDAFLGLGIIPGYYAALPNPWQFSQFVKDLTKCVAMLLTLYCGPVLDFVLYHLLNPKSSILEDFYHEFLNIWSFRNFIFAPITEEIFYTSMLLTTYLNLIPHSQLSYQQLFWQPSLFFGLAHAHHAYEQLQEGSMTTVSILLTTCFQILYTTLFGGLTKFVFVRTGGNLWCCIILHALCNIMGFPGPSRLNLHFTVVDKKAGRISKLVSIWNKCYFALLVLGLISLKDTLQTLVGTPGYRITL
The class given is biochemical.

A further test concerns the target Trypsin (Sus scrofa, UniProt P00761). Description: trypsin protease activity blockade – biochemical, quenched peptide fluorescence, cherry-pick, selectivity assay for Rce1 protease inhibitor project, dose response (AID 488789).

Active and inactive are the calls of the source.

Chain of Beta-galactosidase (Q8VNN2 whole entry): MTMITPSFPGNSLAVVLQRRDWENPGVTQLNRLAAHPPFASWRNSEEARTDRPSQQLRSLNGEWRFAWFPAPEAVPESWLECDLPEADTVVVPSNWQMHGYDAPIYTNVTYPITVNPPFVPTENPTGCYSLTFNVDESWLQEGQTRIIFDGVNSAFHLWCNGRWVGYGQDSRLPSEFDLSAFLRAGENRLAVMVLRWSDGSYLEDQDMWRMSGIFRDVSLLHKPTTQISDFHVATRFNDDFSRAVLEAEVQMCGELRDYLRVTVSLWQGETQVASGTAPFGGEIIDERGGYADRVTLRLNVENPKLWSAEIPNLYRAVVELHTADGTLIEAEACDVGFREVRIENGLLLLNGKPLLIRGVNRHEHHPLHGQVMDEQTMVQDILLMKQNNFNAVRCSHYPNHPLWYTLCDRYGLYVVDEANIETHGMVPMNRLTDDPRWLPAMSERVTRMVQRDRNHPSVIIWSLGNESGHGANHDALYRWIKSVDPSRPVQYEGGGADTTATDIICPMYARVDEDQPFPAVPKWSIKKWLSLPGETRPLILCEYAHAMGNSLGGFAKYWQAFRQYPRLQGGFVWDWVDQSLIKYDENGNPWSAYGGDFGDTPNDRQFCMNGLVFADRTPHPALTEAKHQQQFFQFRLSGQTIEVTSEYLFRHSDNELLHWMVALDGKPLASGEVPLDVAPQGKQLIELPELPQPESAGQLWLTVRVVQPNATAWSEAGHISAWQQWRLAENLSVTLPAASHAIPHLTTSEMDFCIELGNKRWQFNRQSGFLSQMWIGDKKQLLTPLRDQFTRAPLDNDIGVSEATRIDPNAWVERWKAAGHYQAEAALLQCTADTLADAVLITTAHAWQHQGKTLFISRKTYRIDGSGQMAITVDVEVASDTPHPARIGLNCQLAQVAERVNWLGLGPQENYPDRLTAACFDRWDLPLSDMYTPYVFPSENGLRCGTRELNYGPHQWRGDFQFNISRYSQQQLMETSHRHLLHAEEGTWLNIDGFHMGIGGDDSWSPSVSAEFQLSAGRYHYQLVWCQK
Chain of E3 ubiquitin-protein ligase Mdm2 (Q00987 whole entry): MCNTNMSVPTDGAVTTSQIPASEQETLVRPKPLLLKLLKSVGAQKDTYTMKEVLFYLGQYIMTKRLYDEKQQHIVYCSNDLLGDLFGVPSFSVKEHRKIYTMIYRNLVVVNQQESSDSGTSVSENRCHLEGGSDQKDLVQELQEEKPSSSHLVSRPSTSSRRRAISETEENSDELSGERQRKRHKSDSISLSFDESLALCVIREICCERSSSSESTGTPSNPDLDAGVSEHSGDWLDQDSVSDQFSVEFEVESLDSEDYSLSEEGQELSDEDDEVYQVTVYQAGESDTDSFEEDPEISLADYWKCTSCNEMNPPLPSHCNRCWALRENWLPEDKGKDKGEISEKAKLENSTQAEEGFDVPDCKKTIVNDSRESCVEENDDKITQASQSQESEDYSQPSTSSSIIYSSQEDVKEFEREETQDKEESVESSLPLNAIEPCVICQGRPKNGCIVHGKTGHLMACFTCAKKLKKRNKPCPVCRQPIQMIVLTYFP
Chain of Trypsin (P00761 whole entry): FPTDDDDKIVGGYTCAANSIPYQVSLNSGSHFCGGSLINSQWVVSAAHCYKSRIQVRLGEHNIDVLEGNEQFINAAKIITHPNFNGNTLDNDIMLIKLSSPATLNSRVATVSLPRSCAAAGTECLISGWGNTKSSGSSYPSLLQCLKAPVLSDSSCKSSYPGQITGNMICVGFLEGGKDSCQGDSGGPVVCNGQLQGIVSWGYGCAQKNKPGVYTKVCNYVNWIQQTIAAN
Chain of 5-hydroxytryptamine receptor 5A (P47898 whole entry): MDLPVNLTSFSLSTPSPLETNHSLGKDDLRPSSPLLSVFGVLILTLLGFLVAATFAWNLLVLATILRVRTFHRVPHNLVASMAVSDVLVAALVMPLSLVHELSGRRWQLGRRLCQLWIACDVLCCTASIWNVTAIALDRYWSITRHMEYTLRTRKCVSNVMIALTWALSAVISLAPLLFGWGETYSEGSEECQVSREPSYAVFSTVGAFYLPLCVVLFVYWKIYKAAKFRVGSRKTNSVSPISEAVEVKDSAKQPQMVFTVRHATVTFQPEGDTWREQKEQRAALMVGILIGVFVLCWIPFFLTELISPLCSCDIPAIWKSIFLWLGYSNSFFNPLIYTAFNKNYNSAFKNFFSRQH
Chain of CAAX prenyl protease 1 (P47154 whole entry): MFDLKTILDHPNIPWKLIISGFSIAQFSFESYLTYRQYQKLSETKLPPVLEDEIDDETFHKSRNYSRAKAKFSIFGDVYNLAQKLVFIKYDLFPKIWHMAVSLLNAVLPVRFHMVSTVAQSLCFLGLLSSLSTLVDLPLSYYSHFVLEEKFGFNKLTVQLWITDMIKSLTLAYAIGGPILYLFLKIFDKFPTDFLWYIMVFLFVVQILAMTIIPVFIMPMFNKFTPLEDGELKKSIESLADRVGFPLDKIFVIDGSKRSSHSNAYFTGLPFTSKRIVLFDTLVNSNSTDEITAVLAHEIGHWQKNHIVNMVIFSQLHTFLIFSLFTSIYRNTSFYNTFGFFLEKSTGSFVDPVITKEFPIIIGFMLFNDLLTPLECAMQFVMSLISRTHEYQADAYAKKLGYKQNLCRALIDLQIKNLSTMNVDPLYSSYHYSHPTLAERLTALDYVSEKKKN

As usually defined, the AC50 is the concentration giving half of the maximal activity seen. The term EC50 denotes the midpoint of the concentration-response curve. In the case of `C=C1C(=O)O[C@@H]2C[C@@H](C)[C@@H]3C=CC(=O)[C@@]3(C)[C@@H](O)[C@H]12` [HELENALIN], the concentration at half-maximal activity (AC50) was 1.53 µM (active) in test [1], 2.27 µM (active) with INS1, 0.825 µM (active) in test [3] and 4.35 µM (active) in test [7]. Moreover, the IC50 in test [2] is 1.92 µM (active); in the test on Jurkat, 1.02 µM (active); in [5], 2.64 µM (active); in test [6] it was > 80 µM (inactive); in [8] it was 18.6 µM (active). The EC50 at Beta-galactosidase was > 40 µM (inactive); in [4], 0.42 µM (active); in [9], 8.32 µM (active); in test [10] it was 4.62 µM (inconclusive).
For the compound `Cc1cccc(NC(S)=NCC(c2cccnc2)N(C)C)c1C` (stereo not drawn), the EC50 is 17.8 µM (inactive) in [11], 0.0067 µM (active) in test [12], 2.75 µM (active) at Mu-type opioid receptor and > 92.5 µM (inactive) in test [13].
For the compound `O=C(CSc1nnc2scc(-c3ccccc3)n12)Nc1cccc(C(F)(F)F)c1`, the IC50 in test [14] and in [15] was > 99 µM (inactive) throughout.
`COC(=O)c1sc2cnccc2c1N`: the AC50 is 2.57 µM (active) on CAAX prenyl protease 2 [16], 4.39 µM (active) on CAAX prenyl protease 1, 14 µM (active) at CAAX prenyl protease 2 [17] and 9.63 µM (active) on Trypsin.
